Reference: patent US20200397796A1, “METHODS OF TREATMENT OF CANCER COMPRISING CHK1 INHIBITORS” (SIERRA ONCOLOGY, INC., priority 2018, published 2020)

Tests used:
Single dose PK, rat = format: in vivo
Procedure: The PK of SRA737 have been determined in the mouse, rat, dog and monkey following oral and IV administration (Table 3). […] An acceptable terminal elimination t1/2 was also observed in each species. […] The plasma protein binding of SRA737 at 1 and 10 μM was examined in mouse, minipig, monkey and human plasma using ultracentrifugation and in dog plasma (10 μM) using rapid equilibrium dialysis.

[1] = Phase 1 clinical trial, SRA737 in combination with gemcitabine dose escalation; format: in vivo, human; details: for AUC(0-t) / Cmax / Tmax / half-life: human, plasma, oral, mean
Procedure: A Phase 1 clinical trial was conducted in ‘all corners,’ i.e. no genetic selection was performed, to establish safety, tolerability and pharmacokinetics for SRA737 administered in combination with gemcitabine (“Dose Escalation Phase”). Cohorts consisting initially of a single subject received escalating doses of SRA737, starting in Cohort 1 with 40 mg/day administered orally on days 2, 3, 9, 10, 16, and 17 of each 28-day cycle. Cohorts also received various doses of gemcitabine, starting in Cohort 1 with 300 mg/m^2/day administered IV over 30 minutes on days 1, 8, and 15 of each 28-day cycle.
FIG. 3 presents a summary of dosing amounts for the cohorts tested. In the Dose Escalation Phase, a total of 55 subjects received SRA737 in 13 dose escalation cohorts at doses of 40 to 600 mg SRA737 combined with LDG doses of 50 to 300 mg/m^2.
At this dose, the Cmin (52 ng/mL) exceeded that determined in preclinical models to be effective.
Additional cohorts are monitored escalating the dose of SRA737 until the maximum tolerated dose (MTD) is identified and to optimize combination dosing with gemcitabine. All enrolled subjects who receive at least 1 dose of SRA737 and provide at least 1 evaluable PK concentration or have evaluable data for each specific PDn assessment are evaluable for PK and PDn, respectively. Serious adverse events (SAEs) are collected starting on the date of informed consent. Radiological assessment are performed within 4 weeks from the first dose of SRA737 (or gemcitabine if the SRA737 dose for PK is omitted) and repeated every 6 weeks in Stage 1. In Stage 2, assessments are performed every 8 weeks and in long-term follow-up every 16 weeks. Assessments are performed more frequently, when clinically indicated. Cardiac assessments (echocardiogram [ECHO] and electrocardiogram [ECG]) are be conducted. Optional triplet tumor biopsies in some cases are collected within 28 days prior to receiving the first SRA737 dose. Within 7 days of the first dose of SRA737 (or gemcitabine if the SRA737 dose for PK is omitted), the following assessments are completed: complete physical examination, clinical disease assessment, SAE and concomitant medication, WHO performance status and local laboratory assessment of blood (for hematology, biochemistry, and pregnancy testing). At the single-dose PK run-in on Day −7 to Day −4 visit, concomitant medication, vital signs (including temperature, blood pressure, and pulse), height, weight, body surface area (BSA), and WHO performance status are collected. Blood samples are obtained predose for hematology, biochemistry, pregnancy testing, troponin I or T, as well as for tumor markers and tumor profiling. Adverse events (AEs) are collected starting at the administration of SRA737. Archival tissue is submitted for tumor profiling. PK samples are collected at up to 10 time points over a 48-hour time period on Day −7 to −4 (first dose of SRA737 for PK). The sponsor in some cases reduces the requirement for PK sampling, including modification or elimination of the Day −7 to Day −4 visit once sufficient data to evaluate the single-dose PK of SRA737 have been collected and analyzed. […]

[2] = in vivo, Rat IV 5 mg/kg single dose
[3] = in vivo, Rat oral 10 mg/kg single dose

In the case of N#Cc1cnc(Nc2cc(NCC3CNCCO3)c(C(F)(F)F)cn2)cn1 (centres unmarked) [SRA737, 5-[[4-[[morpholin-2-yl]methylamino]-5-(trifluoromethyl)-2-pyridyl]amino]pyrazine-2-carbonitrile], the Foral (Single dose PK, rat; Rat oral 10 mg/kg single dose) is reported as 42%, the AUC(0-t) (Single dose PK, rat; [2]) is reported as 1380 ng·h/mL and the half-life (Single dose PK, rat; [2]) is reported as 60 min. For the same molecule, the AUC(0-t) (Single dose PK, rat; [3]) was 1170 ng·h/mL, the Cmax (Single dose PK, rat; [3]) was 190 ng/mL and the Tmax (Single dose PK, rat; [3]) was 2 h. For the same molecule, the half-life (Single dose PK, rat; [3]) was 276 min, the Cmin ([1]; 150 mg SRA737) was 52 ng/mL and the “dose limiting toxicities (DLTs)” value ([1]; 40 to 600 mg SRA737 combined with gemcitabine 50 to 300 mg/m^2) was “No protocol-defined dose limiting toxicities”. The AUC(0-t) ([1]; 20 mg, Day −7, n = 8-10, read-out: AUC0-12) was 145 ng·h/mL, the Cmax ([1]; 40 mg, Day 10, n = 4) was 117 ng/mL and the Tmax ([1]; 40 mg, Day 10, n = 4) was 1.8 h. The AUC(0-t) ([1]; 40 mg, Day 10, n = 4, read-out: AUC0-12) was 543 ng·h/mL, the Cmax ([1]; 40 mg, Day −7, n = 6) was 106 ng/mL and the Tmax ([1]; 40 mg, Day −7, n = 6) was 2 h. The AUC(0-t) ([1]; 40 mg, Day −7, n = 6, read-out: AUC0-12) was 486 ng·h/mL, the AUC(0-t) ([1]; 40 mg, Day −7, n = 6, read-out: AUC0-24) was 637 ng·h/mL and the Cmax ([1]; 80 mg, Day 10, n = 3) was 113 ng/mL. For the same molecule, the Tmax ([1]; 80 mg, Day 10, n = 3) was 2 h, the AUC(0-t) ([1]; 80 mg, Day 10, n = 3, read-out: AUC0-12) was 570 ng·h/mL and the Cmax ([1]; 80 mg, Day −7, n = 3) was 146 ng/mL. It also gave a Tmax ([1]; 80 mg, Day −7, n = 3) of 2 h, an AUC(0-t) ([1]; 80 mg, Day −7, n = 3, read-out: AUC0-12) of 641 ng·h/mL and an AUC(0-t) ([1]; 80 mg, Day −7, n = 3, read-out: AUC0-24) of 825 ng·h/mL. For the same molecule, the Cmax ([1]; 150 mg, Day 10, n = 3) was 331 ng/mL, the Tmax ([1]; 150 mg, Day 10, n = 3) was 1.5 h and the AUC(0-t) ([1]; 150 mg, Day 10, n = 3, read-out: AUC0-12) was 1680 ng·h/mL. It also gave a Cmax ([1]; 150 mg, Day −7, n = 4) of 548 ng/mL, a Tmax ([1]; 150 mg, Day −7, n = 4) of 1.8 h and an AUC(0-t) ([1]; 150 mg, Day −7, n = 4, read-out: AUC0-12) of 2630 ng·h/mL. The AUC(0-t) ([1]; 150 mg, Day −7, n = 4, read-out: AUC0-24) was 3550 ng·h/mL, the Cmax ([1]; 300 mg, Day 10, n = 7) was 1080 ng/mL and the Tmax ([1]; 300 mg, Day 10, n = 7) was 1.7 h. The AUC(0-t) ([1]; 300 mg, Day 10, n = 7, read-out: AUC0-12) was 5140 ng·h/mL, the Cmax ([1]; 300 mg, Day −7, n = 7) was 995 ng/mL and the Tmax ([1]; 300 mg, Day −7, n = 7) was 2.4 h. It also gave an AUC(0-t) ([1]; 300 mg, Day −7, n = 7, read-out: AUC0-12) of 4530 ng·h/mL, an AUC(0-t) ([1]; 300 mg, Day −7, n = 7, read-out: AUC0-24) of 5910 ng·h/mL and a Cmax ([1]; 500 mg, Day 10, n = 19-22) of 1720 ng/mL. For the same molecule, the Tmax ([1]; 500 mg, Day 10, n = 19-22) was 2.4 h, the AUC(0-t) ([1]; 500 mg, Day 10, n = 19-22, read-out: AUC0-12) was 10200 ng·h/mL and the Cmax ([1]; 500 mg, Day −7, n = 29) was 1430 ng/mL. For the same molecule, the Tmax ([1]; 500 mg, Day −7, n = 29) was 2.4 h, the AUC(0-t) ([1]; 500 mg, Day −7, n = 29, read-out: AUC0-12) was 8320 ng·h/mL and the AUC(0-t) ([1]; 500 mg, Day −7, n = 29, read-out: AUC0-24) was 11400 ng·h/mL. The Cmax ([1]; 600 mg, Day 10, n = 4) was 2110 ng/mL, the Tmax ([1]; 600 mg, Day 10, n = 4) was 2.5 h and the AUC(0-t) ([1]; 600 mg, Day 10, n = 4, read-out: AUC0-12) was 11900 ng·h/mL. It also gave a Cmax ([1]; 600 mg, Day −7, n = 4) of 2210 ng/mL, a Tmax ([1]; 600 mg, Day −7, n = 4) of 1.8 h and an AUC(0-t) ([1]; 600 mg, Day −7, n = 4, read-out: AUC0-12) of 11800 ng·h/mL. The AUC(0-t) ([1]; 600 mg, Day −7, n = 4, read-out: AUC0-24) was 15100 ng·h/mL, the half-life ([1]; 20 mg, Day −7, n = 8-10) was 245 min and the half-life ([1]; 40 mg, Day −7, n = 6) was 696 min. For the same molecule, the half-life ([1]; 80 mg, Day −7, n = 3) was 678 min, the half-life ([1]; 150 mg, Day −7, n = 4) was 762 min and the half-life ([1]; 300 mg, Day −7, n = 7) was 708 min. For the same molecule, the half-life ([1]; 500 mg, Day −7, n = 29) was 708 min and the half-life ([1]; 600 mg, Day −7, n = 4) was 666 min.
